Active and inactive are the calls of the source. The rule behind the calls is not given here.
Tests used:
[1] = target: Kir3.2/Kir3.3 (Homo sapiens) (UniProt P48051+Q92806); experiment: Activation of GIRK2/3 (unknown origin); assay type: protein-complex assay
[2] = target: T1, Kir3.1/Kir3.4 (Homo sapiens) (UniProt P48549+P48544); experiment: Activation of GIRK1/4 (unknown origin) relative to control; assay type: protein-complex assay
Kir3.1/Kir3.4 [3] = target: T2, Kir3.1/Kir3.4 (Homo sapiens, UniProt P48544+P48549); experiment: Activation of GIRK1/4 (unknown origin); assay type: protein-complex assay
T2 sequence (P48549 whole entry): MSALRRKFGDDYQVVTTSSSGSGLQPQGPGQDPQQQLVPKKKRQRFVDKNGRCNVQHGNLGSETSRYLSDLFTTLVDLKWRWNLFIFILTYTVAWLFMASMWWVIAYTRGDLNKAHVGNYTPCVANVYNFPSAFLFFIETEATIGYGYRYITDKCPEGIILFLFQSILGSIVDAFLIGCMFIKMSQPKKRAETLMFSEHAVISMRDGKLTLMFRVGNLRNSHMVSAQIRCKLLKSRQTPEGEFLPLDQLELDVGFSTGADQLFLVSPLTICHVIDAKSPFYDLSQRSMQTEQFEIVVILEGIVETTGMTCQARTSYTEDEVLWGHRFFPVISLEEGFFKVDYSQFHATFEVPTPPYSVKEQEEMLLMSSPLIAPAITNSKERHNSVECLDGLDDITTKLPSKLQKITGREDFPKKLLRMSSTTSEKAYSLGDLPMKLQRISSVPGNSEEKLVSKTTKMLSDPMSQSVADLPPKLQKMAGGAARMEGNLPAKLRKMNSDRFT
T2 sequence (P48544 whole entry): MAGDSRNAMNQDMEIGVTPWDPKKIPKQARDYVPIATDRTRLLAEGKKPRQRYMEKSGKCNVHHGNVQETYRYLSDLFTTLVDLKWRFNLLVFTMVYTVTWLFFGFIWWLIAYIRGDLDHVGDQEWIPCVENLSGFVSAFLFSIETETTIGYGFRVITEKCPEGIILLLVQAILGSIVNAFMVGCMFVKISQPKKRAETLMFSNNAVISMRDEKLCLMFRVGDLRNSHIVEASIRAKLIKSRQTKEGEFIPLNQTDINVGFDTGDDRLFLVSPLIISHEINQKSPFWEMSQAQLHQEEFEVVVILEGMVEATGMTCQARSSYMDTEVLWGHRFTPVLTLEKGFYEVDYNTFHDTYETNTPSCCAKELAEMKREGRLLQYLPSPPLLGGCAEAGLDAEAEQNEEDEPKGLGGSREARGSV

Kir3.1/Kir3.2 [4] = target: T3, Kir3.1/Kir3.2 (Homo sapiens, UniProt P48051+P48549); experiment: Activation of GIRK1/2 (unknown origin) by thallium flux assay; assay type: protein-complex assay
T3 sequence (P48549 whole entry): T2 sequence (P48549 whole entry)
T3 sequence (P48051 whole entry): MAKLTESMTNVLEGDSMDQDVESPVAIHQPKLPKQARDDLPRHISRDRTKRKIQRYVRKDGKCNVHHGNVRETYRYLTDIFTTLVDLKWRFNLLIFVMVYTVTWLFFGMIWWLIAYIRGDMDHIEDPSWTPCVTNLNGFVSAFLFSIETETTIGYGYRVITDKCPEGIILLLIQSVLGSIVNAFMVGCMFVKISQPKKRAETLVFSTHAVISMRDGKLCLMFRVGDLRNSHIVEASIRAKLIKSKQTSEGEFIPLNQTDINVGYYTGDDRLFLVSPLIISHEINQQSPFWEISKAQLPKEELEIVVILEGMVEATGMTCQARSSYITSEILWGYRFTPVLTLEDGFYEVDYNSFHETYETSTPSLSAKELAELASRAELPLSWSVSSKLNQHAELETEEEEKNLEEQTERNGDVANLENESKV

[5] = target: T4, Kir3.1/Kir3.2 (Homo sapiens) (UniProt P48549+P48051); experiment: Activation of GIRK1/2 (unknown origin) by thallium flux assay relative to control; assay type: protein-complex assay
[6] = target: T4, Kir3.1/Kir3.2 (Homo sapiens); experiment: Inhibition of GIRK1/2 (unknown origin) relative to SCH3320; assay type: protein-complex assay; design: concentration or dose not given beside the values; conditions: concentration not given here
[7] = target: T1, Kir3.1/Kir3.4 (Homo sapiens); experiment: Inhibition of GIRK1/4 (unknown origin) relative to SCH3320; assay type: protein-complex assay; design: concentration or dose not given beside the values; conditions: concentration not given here
Kir3.1/Kir3.4 [8] = target: T2, Kir3.1/Kir3.4; experiment: Inhibition of GIRK1/4 (unknown origin); assay type: protein-complex assay
Kir3.1/Kir3.2 [9] = target: T3, Kir3.1/Kir3.2; experiment: Inhibition of GIRK1/2 (unknown origin); assay type: protein-complex assay
[10] = target: T1, Kir3.1/Kir3.4 (Homo sapiens); experiment: Activation of GIRK1/4 (unknown origin) relative to ML297; assay type: protein-complex assay
Kir3.1/Kir3.2 [11] = target: T3, Kir3.1/Kir3.2; experiment: Activation of GIRK1/2 (unknown origin); assay type: protein-complex assay
[12] = target: T4, Kir3.1/Kir3.2 (Homo sapiens); experiment: Activation of GIRK1/2 (unknown origin) relative to ML297; assay type: protein-complex assay
[13] = Inhibition of GIRK (unknown origin); design: species or system Homo sapiens
[14] = target: T5, G protein-activated inward rectifier potassium channel 2 (Homo sapiens) (UniProt P48051); experiment: Activation of GIRK2 (unknown origin)
T5 sequence (whole entry): T3 sequence (P48051 whole entry)

Structure (SMILES) | Activity [1] | EC50 (Kir3.1/Kir3.4 [3]) [nM] | inhibition [6] [%] | inhibition [7] [%] | IC50 (Kir3.1/Kir3.4 [8]) [nM] | IC50 (Kir3.1/Kir3.2 [9]) [nM] | EC50 (Kir3.1/Kir3.2 [11]) [nM] | Efficacy [12] [%] | also measured
O=C(Nc1ccc(F)c(Cl)c1)Nc1cc(C2CC2)nn1Cc1ccccc1 | – | 320 | – | – | – | – | 210 | 47 | Efficacy [10]: 83%
Cc1cccc(NC(=O)Nc2cc(CC3CC3)nn2-c2ccccc2)c1 | – | – | 83 | 47 | 250 | 520 | – | – | –
CSc1cccc(NC(=O)Nc2cc(C3CC3)nn2-c2ccccc2)c1 | – | – | 86 | – | > 30000 | 950 | – | – | –
CC(C)c1cc(NC(=O)Nc2cccc(C(F)(F)F)c2)n(Cc2ccccc2)n1 | – | 3500 | – | – | – | – | 1700 | 38 | Efficacy [10]: 10%
CN1CCc2cc(Cl)c(O)cc2[C@@H](c2ccccc2)C1 [SCH-23390] | – | – | – | – | – | – | – | – | IC50 [13]: 4000 nM
CC(C)c1cc(NC(=O)Nc2ccc(F)c(F)c2)n(-c2ccccc2)n1 | inactive | – | 136 | 150 | 1400 | 2000 | – | – | Activity [14]: inactive
Cc1cc(NC(=O)Nc2ccc(F)c(F)c2)n(-c2ccccn2)n1 | inactive | > 30000 | – | – | – | – | > 10000 | 78 | Activity [14]: inactive
CC(C)c1cc(NC(=O)Nc2cccc(F)c2)n(-c2ccccc2)n1 | – | – | 77 | 70 | 780 | 2100 | – | – | –
O=C(Nc1cccc(Cl)c1)Nc1cc(C2CCC2)nn1-c1ccccc1 | – | – | 64 | 89 | 480 | 1400 | – | – | –
O=C(Nc1cccc(F)c1)Nc1cc(C2CC2)nn1-c1ccccc1 | – | – | 60 | – | > 30000 | 1200 | – | – | –
O=C(Nc1ccc(F)cc1)Nc1cc(C2CC2)nn1Cc1ccccc1 | – | 570 | – | – | – | – | 350 | 57 | Efficacy [10]: 90%
O=C(Nc1ccc(F)cc1)Nc1cc(CC2CC2)nn1-c1ccccc1 | – | – | 80 | 54 | 270 | 640 | – | – | –
O=C(Nc1cccc(C(F)(F)F)c1)Nc1cc(C2CCC2)nn1-c1ccccc1 | – | – | 65 | 84 | 690 | 1300 | – | – | –
O=C(Nc1cccc(C(F)(F)F)c1)Nc1cc(CC2CC2)nn1-c1ccccc1 | – | – | 88 | 45 | 250 | 540 | – | – | –
O=C(Nc1ccc(F)c(F)c1)Nc1cc(CC2CC2)nn1-c1ccccc1 | inactive | – | 95 | 67 | 560 | 650 | – | – | Activity [14]: inactive
Cc1cccc(NC(=O)Nc2cc(C3CC3)nn2-c2ccccc2)c1 | – | – | 80 | – | > 30000 | 850 | – | – | –
O=C(Nc1ccc(F)c(F)c1)Nc1cc(-c2ccccc2)nn1-c1ccccc1 | inactive | – | – | – | – | – | > 30000 | – | Activity [14]: inactive
Cc1cc(NC(=O)Nc2ccc(F)c(F)c2)n(CC(F)(F)F)n1 | inactive | 1300 | – | – | – | – | 460 | 96 | Efficacy [10]: 103%; Activity [14]: inactive
Cc1cc(NC(=O)Nc2ccc(F)c(F)c2)n(-c2ccncc2)n1 | inactive | > 30000 | – | – | – | – | > 10000 | 88 | Activity [14]: inactive
O=C(Nc1ccc(F)c(F)c1)Nc1cc(C(F)(F)F)nn1-c1ccccc1 | inactive | – | – | – | – | – | – | – | Activity [14]: inactive
O=C(Nc1ccc(F)c(F)c1)Nc1cc(C2CC2)nn1-c1ccccc1 | inactive | – | – | – | – | – | 410 | 32 | Activity [14]: inactive
O=C(Nc1cccc(Br)c1)Nc1cc(C2CC2)nn1Cc1ccccc1 | – | 790 | – | – | – | – | 380 | 44 | Efficacy [10]: 65%
Cc1cc(NC(=O)Nc2ccc(F)c(F)c2)n(-c2ccccc2)n1 | inactive | 1800 | – | – | – | – | – | – | Efficacy [2]: 93%; EC50 (Kir3.1/Kir3.2 [4]): 160 nM; Efficacy [5]: 194%
Cc1cc(NC(=O)Nc2ccc(F)c(F)c2)n(Cc2ccccc2)n1 | inactive | 110 | – | – | – | – | 70 | 87 | Efficacy [10]: 99%; Activity [14]: inactive
Cc1ccc(NC(=O)Nc2cc(C3CC3)nn2Cc2ccccc2)cc1 | – | 920 | – | – | – | – | 570 | 35 | Efficacy [10]: 46%
O=C(Nc1ccc(F)c(Cl)c1)Nc1cc(CC2CC2)nn1-c1ccccc1 | – | – | 87 | 70 | 310 | 810 | – | – | –
O=C(Nc1ccc(F)c(Cl)c1)Nc1cc(C2CCC2)nn1-c1ccccc1 | – | – | 70 | 69 | 610 | 1900 | – | – | –
Cc1ccc(NC(=O)Nc2cc(C(C)C)nn2-c2ccccc2)cc1 | – | – | 100 | 62 | 1800 | 3900 | – | – | –
O=C(Nc1cccc(Cl)c1)Nc1cc(CC2CC2)nn1-c1ccccc1 | – | – | 76 | 72 | 340 | 630 | – | – | –

Now from value to compound, other results behind:

Activity [1] | EC50 (Kir3.1/Kir3.4 [3]) [nM] | inhibition [6] [%] | inhibition [7] [%] | IC50 (Kir3.1/Kir3.4 [8]) [nM] | IC50 (Kir3.1/Kir3.2 [9]) [nM] | EC50 (Kir3.1/Kir3.2 [11]) [nM] | Efficacy [12] [%] | Structure (SMILES) | also measured
inactive | 690 | – | – | – | – | – | – | Cc1cc(NC(=O)Nc2ccccc2)n(-c2ccccc2)n1 | Efficacy [2]: 93%; EC50 (Kir3.1/Kir3.2 [4]): 1400 nM; Efficacy [5]: 97%
– | – | 51 | 69 | 720 | 1900 | – | – | O=C(Nc1cccc(Br)c1)Nc1cc(C2CCC2)nn1-c1ccccc1 | –
– | 720 | – | – | – | – | 1400 | 37 | O=C(Nc1cccc(Cl)c1)Nc1cc(C2CC2)nn1-c1ccccc1 | Efficacy [10]: 39%
– | 780 | – | – | – | – | 530 | 46 | O=C(Nc1cccc(F)c1)Nc1cc(C2CC2)nn1Cc1ccccc1 | Efficacy [10]: 85%
– | 650 | – | – | – | – | 340 | 35 | O=C(Nc1cccc(C(F)(F)F)c1)Nc1cc(C2CC2)nn1Cc1ccccc1 | Efficacy [10]: 39%
– | 1700 | – | – | – | – | 470 | 35 | CC(C)c1cc(NC(=O)Nc2cccc(Cl)c2)n(Cc2ccccc2)n1 | Efficacy [10]: 23%
inactive | 540 | – | – | – | – | 190 | 78 | Cc1cc(NC(=O)Nc2ccc(F)c(F)c2)n(-c2ccc(F)cc2)n1 | Efficacy [10]: 57%; Activity [14]: inactive
– | – | 75 | 72 | 180 | 450 | – | – | O=C(Nc1cccc(F)c1)Nc1cc(CC2CC2)nn1-c1ccccc1 | –
– | – | 93 | 67 | 850 | 2600 | – | – | Cc1cccc(NC(=O)Nc2cc(C(C)C)nn2-c2ccccc2)c1 | –
inactive | – | 85 | 88 | 4100 | 5100 | – | – | O=C(Nc1ccc(F)c(F)c1)Nc1cc(C2CCCC2)nn1-c1ccccc1 | Activity [14]: inactive
inactive | – | – | – | – | – | – | – | O=C(Nc1ccc(F)c(F)c1)Nc1cc(C2CCC2)nn1-c1ccccc1 | Activity [14]: inactive
– | – | 62 | 100 | 1300 | 2100 | – | – | CC(C)c1cc(NC(=O)Nc2cccc(C(F)(F)F)c2)n(-c2ccccc2)n1 | –
